Reference: patent US20250382250A1, “STILBENE DERIVATIVE AS AHR AGONIST AND USE THEREOF” (NANJING GRITPHARMACO., LTD., priority 2022, published 2025)

Assays:
AhR = molecular target: T1, AhR (Homo sapiens, UniProt P35869); test: AhR agonism luciferase reporter gene assay in transfected HepG2 cells; format: cell-based; details: 16 h, ratio of treatment group to blank
T1 construct: expressed in transfected cells; host or cells: HepG2
T1 sequence (P35869 11-848): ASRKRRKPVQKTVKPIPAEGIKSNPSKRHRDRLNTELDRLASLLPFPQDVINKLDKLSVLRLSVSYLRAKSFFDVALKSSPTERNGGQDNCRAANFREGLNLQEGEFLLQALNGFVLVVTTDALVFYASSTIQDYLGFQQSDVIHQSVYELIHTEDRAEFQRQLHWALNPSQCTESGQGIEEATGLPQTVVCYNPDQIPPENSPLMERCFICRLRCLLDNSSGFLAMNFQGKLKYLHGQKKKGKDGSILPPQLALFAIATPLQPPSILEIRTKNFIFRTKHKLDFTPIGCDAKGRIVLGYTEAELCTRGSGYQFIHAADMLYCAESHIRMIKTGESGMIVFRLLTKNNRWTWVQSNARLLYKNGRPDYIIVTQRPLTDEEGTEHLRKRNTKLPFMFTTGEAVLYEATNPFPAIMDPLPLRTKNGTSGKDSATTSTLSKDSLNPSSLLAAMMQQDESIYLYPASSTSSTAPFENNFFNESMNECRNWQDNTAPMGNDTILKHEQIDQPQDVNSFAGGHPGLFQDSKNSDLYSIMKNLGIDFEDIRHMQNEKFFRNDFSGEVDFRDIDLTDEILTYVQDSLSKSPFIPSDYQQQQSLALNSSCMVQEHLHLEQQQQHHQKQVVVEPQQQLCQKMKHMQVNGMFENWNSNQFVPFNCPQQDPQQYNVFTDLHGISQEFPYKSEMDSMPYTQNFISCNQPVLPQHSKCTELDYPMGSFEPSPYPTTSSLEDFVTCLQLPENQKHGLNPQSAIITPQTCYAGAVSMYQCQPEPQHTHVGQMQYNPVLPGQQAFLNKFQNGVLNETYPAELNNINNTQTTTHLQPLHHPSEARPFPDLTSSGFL
Protocol: When the cell confluence reached 80%, the culture medium was replaced with a fresh one, and the transfection working solution was added for transfection overnight. The formula of the working solution is as follows: 1 mL of Opti-MEM+7.5 μg of pCMV-AHR+7.5 μg of pTK-3×DRE-Luc+30 μL of lipo6000. • (2) Cell plating: The transfected cells were digested, prepared into a cell suspension at a concentration of 3×10^5 cells/mL, and then plated on a 96-well plate at 100 µL/well for adherent culture overnight. • (3) Formulation
The prepared drug-containing culture media and a blank culture medium were added to the 96-well plate described above at 100 μL/well.

TNFa = test: Regulatory effect on cytokine secretion in PHA-stimulated PBMCs: TNFa; format: cell-based; details: for TNFa: PBMCs, 15 μg/mL PHA, 24 h (PHA group 3649.21)
Protocol: (§1) • (1) Cells: […]; • (2) Cell plating and treatment: After the PBMCs were taken out from the liquid nitrogen tank and thawed, 80 μL of culture medium was added to a 96-well plate, and the cells were added at 200,000 cells/well. The culture media containing 2 μM or 0.2 μM compound 2 #, compound 6 #, or reference 1 # were added to the 96-well plate at 80 μL, at a final drug concentration of 1 μM or 0.1 μM per well. The plate was let stand for 1 h for pretreatment. After the pretreatment, the drug-containing medium was discarded, and 1 μM or 0.1 μM solution containing 15 μg/mL PHA (phytohemaggluyinin) was added at 80 μL/well. After 24 h of stimulation, the content of cytokines in the culture medium was detected. • Blank control group: The cells were treated with a normal culture medium with no drugs; • PHA group: A culture medium containing 15 μg/mL PHA but no compounds of the present disclosure was added at 80 μL/well.

IL4 = test: Regulatory effect on cytokine secretion in PHA-stimulated PBMCs: IL4; format: cell-based; details: for IL4: PBMCs, 15 μg/mL PHA, 24 h (PHA group 9.42)
Protocol: as §1

DSS-induced colitis = DSS-induced colitis mouse model; format: in vivo, C57BL/6 mice; details: 10 mg/kg intragastric, DSS 2.5% 8 days; for effect on colon length: day 9
Protocol: • (1) Animals: 40 C57BL/6 mice, male, aged 8 weeks, 22-24 g • (2) Materials: […] Biomedicals, USA, Cat. No. […] Tween 80; Wahaha purified water • (3) Procedures: […] The solution was inspected daily and replaced with fresh DSS solution when necessary. On day one after modeling, the treatment was given. […] On day 9, the mice were sacrificed, and the blood and colon were collected. The colon length, occult blood in the cecal contents, and other conditions were also recorded. Test compound formulation: 1.00 mg of compound powder was dissolved in 20 μL of DMSO completely. Then, 20 μL of Tween 80 was added, and the mixture was well mixed. 0.96 mL of Wahaha purified water was added, and the mixture was well mixed to give a 1 mg/mL solution, which was administered at a dose of 0.1 mL/10 g (body weight). Solvent: 20 μL of DMSO, 20 μL of Tween 80, and 0.96 mL of Wahaha purified water were mixed well (used in the modeling group).

[1] = Drug permeation rate test, in vitro diffusion through semipermeable membrane; format: in vitro ADME; details: ointments: 2# 1.2 wt %, 6# 1.2 wt %, benvitimod 1.0 wt %, 32° C.
Protocol: Test compounds: compound 2 #ointment, 1.2 wt %; compound 6 #ointment, 1.2 wt %; benvitimod ointment, 1.0 wt %;
[drawing 90] • (1) Preparation of semipermeable membrane: The semipermeable membrane, which had been prepared in advance, was taken out from the refrigerator; • (2) Preparation of receiving liquid: 100 mL of polyethylene glycol 400 solution was brought to a final volume of 250 mL with normal saline. The mixture was mixed well and stored at 4° C. Before each permeation in the receiving compartment, the system was preheated to 32° C.; • (3) In vitro diffusion test: A drug transdermal diffusion apparatus was used to fix the processed semipermeable membrane between the supply and receiving compartments. A constant temperature water bath circulation at 32° C. was maintained. The system was equilibrated for 30 min. Upon each replacement of the receiving liquid, the air at the lower layer was exhausted. About 0.5 g of the ointment was evenly smeared in the supply compartment. The system was stirred with a magnetic stirring at a rotation speed of 600 r/min. At 0.5, 1, 2, 4, 6, and 24 h, 1 mL of sample liquid was taken out from the receiving compartment, and simultaneously, an equal amount of fresh receiving liquid at the same temperature was added;
The sampling time points were 0.5, 1, 2, 4, 6, and 24 h, and 1 mL of sample was directly transferred into a liquid phase vial. Simultaneously, an equal amount of fresh receiving liquid at the same temperature was added. The liquid phase detection was conducted to calculate the drug permeation rate.

| SMILES | AhR receptor agonistic fold (AhR; drug concentration 0.1 μM) [fold] | AhR receptor agonistic fold (AhR; drug concentration 1 μM) [fold] | TNFa (TNFa; 0.1 μM) [pg/mL] | inhibitory effect on TNFa relative to reference 1# (benvitimod) (TNFa; 1 μM) [folds] | TNFa (TNFa; 1 μM) [pg/mL] | IL4 (IL4; 0.1 μM) [pg/mL] | inhibitory effect on IL4 relative to reference 1# (benvitimod) (IL4; 1 μM) [folds] | IL4 (IL4; 1 μM) [pg/mL] | disease activity indicator (body weight change and hematochezia) (DSS-induced colitis) | effect on colon length (DSS-induced colitis) | 24-hour drug permeation rate (rank order) [1] |
| --- | --- | --- | --- | --- | --- | --- | --- | --- | --- | --- | --- |
| Oc1cc(/C=C/c2ccc(F)cc2)cc(O)c1C1CCCCC1 [Compound 6, (E)-2-cyclohexyl-5-(4-fluorostyryl)-1,3-benzenediol] | 6.6 ± 0.1 | 25.9 ± 0.4 | 1433.29 | 2 | 810.71 | 4.62 | 2 | 2.75 | a more significant effect | superior to that in the reference 1 #benvitimod group | benvitimod >2 #>6 # |
| CC(C)c1c(O)cc(/C=C/c2ccccc2)cc1O [Reference 1#, Benvitimod, reference compound] | 3.2 ± 1.2 | 10.6 ± 1.0 | 2559.02 | – | 2426.93 | 9.30 | – | 5.63 | good therapeutic effects | the conditions were improved | benvitimod >2 #>6 # |
